Experiments:
[1] = tested on: human recombinant TG2 binding to FN and its 45 kDa and 70 kDa fragments; test: Inhibition of purified TG2 binding to FN by TG2-derived peptides (ELISA); conditions: peptide 10 μM-1 mM, effect at higher concentrations
Procedure: 96-well Microtitre 96-well plates were coated overnight with either full length FN (5 μg/ml), its 45 kDa (54 μg/ml) or 70 kDa (45 μg/ml) fragments, in 50 mM Tris-HCl, pH 7.4 as previously described (Verderio et al., 2003b). Wells were blocked with 3% BSA (w/v) in TBS pH 7.6. After three washes with PBS pH7.4, competitive peptides diluted in PBS, 2 mM EDTA, pH 7.4 were added to the wells at concentrations from 10 μM-1 mM and incubated for 1 h at room temperature. Wells were washed three times with PBS pH7.4 and purified human recombinant TG2 was added at a final concentration of 2 μg/ml in the presence of the different concentrations of P2 or P2s peptides and incubated for 1 h at room temperature. After three washes with PBS pH7.4 bound TG2 was measured via ELISA as introduced above. […] The treated TG2 was then detected by the ELISA assay as described above.

[2] = tested on: p-397 FAK; test: Western blotting of p-397 FAK after cell adhesion assay; assay type: cell-based, human; conditions: HOB on FN, RGD, peptide 100 μg/ml
Procedure: (§1) Cell lysates containing 50 μg of protein were dissolved in 2× Laemmli buffer (Sigma-Aldrich Ltd, Dorset, UK) and separated by SDS-PAGE. Western blotting was performed using specific primary antibodies as described above. Primary antibodies were detected using the appropriate secondary antibody conjugated to horse radish peroxidase. Detection was by chemiluminescence (Amersham ECL™ Western Blotting System, GE Healthcare, UK).
(§2) The cell adhesion assay was carried out as previously described (Wang et al., 2010). […] Images of stained cells from non-overlapping fields of view were photographed at 20× magnification and analyzed using the imaging analysis program Scion Image (National Institute of Health). Cell attachment and spreading were quantified, and the number of cells per image was assessed as described previously (Telci et al., 2008). […] The mean number of attached cells form three wells was calculated and that of the control was considered as 100%. The mean number of attached cells (cell attachment) for each sample was then expressed as the percentage of cell attachment on FN. The mean percentage of attached cells that are spread (cell spreading) for each sample was determined separately, and the mean percentage of spread cells on FN control was expressed as 100%. […]

[3] = tested on: HOB cells; test: Cell adhesion assay (attachment and spreading) on FN or TG-FN matrix with RGD or RAD peptide; assay type: cell-based, human; conditions: for effect on attachment and spreading of HOB cells on TG-FN in the presence of the RGD peptide: TG-FN matrix, peptide 100-300 μg/ml
Procedure: The cell adhesion assay was carried out as previously described (Wang et al., 2010). Briefly, 96-well plastic tissue culture plates were coated with 5 μg/ml FN in 50 mM Tris-HCl, pH 7.4 at 4° C. overnight, after washing three times with 100 μl of 50 mM Tris-HCl, pH7.4, gplTG (20 μg/ml) in 2 mM EDTA in PBS, pH 7.4 was added to the wells for 1 h at 37° C. and the wells were washed three times with 50 mM Tris-HCl, pH7.4. Serum-starved (for 16 h) HOB cells with different treatments as introduced below in serum-free medium were detached by trypsinization and then treated with trypsin inhibitor. Cells were washed three times with serum free medium and seeded onto either FN or TG-FN matrix for 20-40 min. Peptides P1 or scrambled P1 (P1s), were added at concentrations between 100 μg/ml and 300 μg/ml. […] Attached cells were washed once with PBS, pH 7.4 and then fixed with 3.7% paraformaldehyde, further permeabilised with 0.1% (v/v) Triton® X-100 detergent in PBS, and co-stained with May-Grunwald and Giemsa stains as described previously (Jones et al., 1997). Images of stained cells from non-overlapping fields of view were photographed at 20× magnification and analyzed using the imaging analysis program Scion Image (National Institute of Health). Cell attachment and spreading were quantified, and the number of cells per image was assessed as described previously (Telci et al., 2008). Cell attachment on FN without peptide was considered as the control value for all the experiments unless stated otherwise. The mean number of attached cells form three wells was calculated and that of the control was considered as 100%. The mean number of attached cells (cell attachment) for each sample was then expressed as the percentage of cell attachment on FN. The mean percentage of attached cells that are spread (cell spreading) for each sample was determined separately, and the mean percentage of spread cells on FN control was expressed as 100%. The mean percentage of spread cells for each sample was then normalised against that of FN control Cell attachment on FN without the RGD peptide was considered as the control value for most of the experiments unless stated otherwise The mean number of attached cells from three wells was calculated and that of the control was considered as 100%. The mean number of attached cells (cell attachment) for each sample was then expressed as the percentage of cell attachment on FN. The mean percentage of attached cells that are spread (cell spreading) for each sample was determined separately, and the mean percentage of spread cells on the FN control was expressed as 100%. The mean percentage of spread cells for each sample was then normalised against that of FN control Cell pre-treatments included: PKCα inhibitor Go6976 (5 μM) or GK21 peptide (8 μM) for 1 h in serum-free medium prior to cell detachment; heparinase (15 mU/ml) or chondroitinase (15 mU/ml) to cells in suspension in serum free medium for 1 h. For the detection of the signalling molecules via Western blotting, the cell adhesion assay was performed in 60 mm Petri dishes and cells were collected into cell lysis buffer (Santa Cruz, UK) as described previously and pre-cleared by centrifugation at 300×g for 10 min. Western blotting was performed with specific anti-p-397 FAK or p-ERK1/2 antibodies. Membranes were stripped (Telci et al., 2008) and total FAK and ERK1/2 detected using anti-FAK and anti-ERK1/2 antibodies as listed in Table 2, while α-tubulin was used as an equal loading standard (Wang et al., 2011).
Cell adhesion and spreading assays were performed as described above in Example 1 method ‘Cell adhesion assay’

[4] = tested on: p-ERK1/2; test: Western blotting of p-ERK1/2 after cell adhesion assay; assay type: cell-based, human; conditions: HOB on FN, RGD, peptide 100 μg/ml
Procedure: as §1, §2

[5] = HOB cells on FN, RGD peptide, tested 0.01-200 μg/ml

Chain of human recombinant TG2 binding to FN and its 45 kDa and 70 kDa fragments (P02751 291-608 limits assumed): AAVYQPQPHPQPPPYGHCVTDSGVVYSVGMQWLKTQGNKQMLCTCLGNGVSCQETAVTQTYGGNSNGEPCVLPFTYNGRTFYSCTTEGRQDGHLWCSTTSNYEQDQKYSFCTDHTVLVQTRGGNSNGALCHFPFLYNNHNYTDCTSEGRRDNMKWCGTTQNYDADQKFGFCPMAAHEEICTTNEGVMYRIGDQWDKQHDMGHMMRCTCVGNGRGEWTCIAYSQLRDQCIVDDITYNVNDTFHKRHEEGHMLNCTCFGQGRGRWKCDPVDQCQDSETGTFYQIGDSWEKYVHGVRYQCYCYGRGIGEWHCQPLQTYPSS

**Q.** How did the “inhibition of wild type TG2 binding to FN and its 45 and 70 kDa fragments” value [1] turn out when “AEELVLERCDLELE (listed as Homo sapiens) [P2, peptide corresponding to the N-terminal end of TG2]” was run?
**A.** moderate but significant inhibition

**Q.** For “EECRLAEELLEDVL (Scrambed Control Peptide) [P2s, scrambled P2 peptide, reference compound]”, which “inhibition of wild type TG2 binding to FN and its 45 and 70 kDa fragments” value [1] is on record?
**A.** No effect

**Q.** Which results are given for “FNRADLKPRCGSSNKSR (Scrambled Control Peptide) [P1s, scrambled control peptide for P1, reference compound]”?
**A.** phosphorylation of p-FAK397 [2]: not found; effect on attachment and spreading of HOB cells on TG-FN in the presence of the RGD peptide [3]: almost no effect; phosphorylation of p-ERK1/2 [4]: not found

**Q.** “NPKFLKNAGRDCSRRSS (listed as Homo sapiens) [P1]” was tested. Which “phosphorylation of p-FAK397” value [2] did it give?
**A.** paralleled by the phosphorylation of p-FAK397

**Q.** What about the “effect on binding of cells to FN alone” value ([3]; FN matrix, 100-300 μg/ml, compared to P1s) of the same sequence?
**A.** small but significant enhancement of adhesion

**Q.** What about the “concentration at which compensation of RGD-induced loss of cell adhesion started” value [3, 5] of the same sequence?
**A.** 5 to 10 µg/mL

**Q.** And the “concentration of maximum compensation of RGD-induced loss of cell adhesion” value [3, 5]?
**A.** 50 to 100 µg/mL

**Q.** And the “compensatory effect on RGD-induced loss of cell adhesion after heparinase pre-treatment” value ([3]; HOB cells treated with heparinase 15 mU/ml (not chondroitinase), FN)?
**A.** abolished

**Q.** What about the “compensatory effect on RGD-induced loss of cell adhesion after syndecan-4 siRNA” value ([3]; HOB cells, syndecan-4 siRNA (around 50% reduction in protein expression)) of the same sequence?
**A.** comparable reduction in the compensatory effect

**Q.** What about the “effect on attachment and spreading of HOB cells on TG-FN in the presence of the RGD peptide” value [3] of the same sequence?
**A.** small, but not significant dose-dependent negative effect

**Q.** What about the “phosphorylation of p-ERK1/2” value [4] of the same sequence?
**A.** paralleled by the phosphorylation of p-FAK397 and p-ERK1/2
